From ChEMBL document CHEMBL5331114, “Discovery of Pyxinol Amide Derivatives Bearing Amino Acid Residues as Nonsubstrate Allosteric Inhibitors of P-Glycoprotein-Mediated Multidrug Resistance” (J Med Chem, 2023)

Tests used:
[1] = Drug accumulation in human KB cells at 10 uM incubated for 4 hrs by LC-MS/MS analysis; format: ADME, cell-based
[2] = biological target: T1, ATP-dependent translocase ABCB1 (Homo sapiens, UniProt P08183); experiment: Binding affinity to P-glycoprotein in human KBV cells assessed as stabilization of P-glycoprotein at 50 uM incubated for 26 hrs by western blot based cellular thermal shift assay; format: cell-based
[3] = Cytotoxicity against human KBV Cells assessed as cell survival rate at 10 uM incubated for 72 hrs by MTT assay; format: functional; conditions: read-out: Survival
[4] = Induction of cell cycle arrest in human KBV cells assessed as accumulation of cells at S phase at 5 uM incubated for 24 hrs by flow cytometry analysis (reference value: 12.42 +/- 0.41%); format: functional
[5] = Reversal of multidrug resistance in human KBV Cells assessed as reversal fold of paclitaxel IC50 at 5 uM incubated for 72 hrs in presence of paclitaxel by MTT assay; format: functional
[6] = Induction of cell cycle arrest in human KBV cells assessed as accumulation of cells at G1-G0 phase at 5 uM incubated for 24 hrs by flow cytometry analysis (reference value: 62.34 +/- 0.24%); format: functional
[7] = Induction of cell cycle arrest in human KBV cells assessed as accumulation of cells at G2-M phase at 10 uM incubated for 24 hrs by flow cytometry analysis (reference value: 24.94 +/- 0.21%); format: functional
P-gp (ABCB1) ATPase [8] = biological target: T2, P-gp (ABCB1) ATPase (Homo sapiens, UniProt P08183); experiment: Negative allosteric modulator activity at human P-gp ATP synthase hydrolytic activity assessed as inhibition of basal Pgp-ATPase activity incubated for 60 mins in presence of ATP by Glo-luminescence based microplate reader assay relative to DMSO
[9] = biological target: T1, ATP-dependent translocase ABCB1; experiment: Negative allosteric modulator activity at P-glycoprotein in human KBV cells assessed as effect on P-gp protein expression level at 10 uM incubated for 72 hrs by Western blotting analysis; format: cell-based
[10] = biological target: T1, ATP-dependent translocase ABCB1; experiment: Negative allosteric modulator activity at P-glycoprotein mediated Rhodamine-123 efflux in human KBV cells assessed as increase in intracellular Rhodamine-123 accumulation at 10 uM incubated for 2 hrs in presence of Ptx-C by flow cytometry analysis; format: cell-based
[11] = Toxicity against BALB/c mouse xenografted with Ptx-resistance human KBV cells at 20 mg/kg,ip measured after 23 days; format: organism-based; conditions: in vivo, 552 h, time 23 day
[12] = Induction of cell cycle arrest in human KBV cells assessed as accumulation of cells at Sub-G1 phase at 5 uM incubated for 24 hrs by flow cytometry analysis (reference value: 1.24 +/- 0.14%); format: functional
[13] = Induction of cell cycle arrest in human KBV cells assessed as accumulation of cells at Sub-G1 phase at 10 uM incubated for 24 hrs by flow cytometry analysis (reference value: 1.24 +/- 0.14%); format: functional
[14] = Induction of cell cycle arrest in human KBV cells assessed as accumulation of cells at G1-G0 phase at 10 uM incubated for 24 hrs by flow cytometry analysis (reference value: 62.34 +/- 0.24%); format: functional
[15] = Induction of Ptx-mediated cell cycle arrest in human KBV cells assessed as accumulation of cells at Sub-G1 phase at 5 uM incubated for 24 hrs in presence of paclitaxel by flow cytometry analysis (reference value: 1.21 +/- 0.3%); format: functional
[16] = Reversal of multidrug resistance in human KBV Cells assessed as increase in PTX-induced cytotoxicity by measuring cell survival rate at 5 uM incubated for 72 hrs in presence of paclitaxel by MTT assay relative to control; format: functional; conditions: read-out: Survival
P-gp (ABCB1) ATPase [17] = biological target: T2, P-gp (ABCB1) ATPase; experiment: Negative allosteric modulator activity at human P-gp ATP synthase hydrolytic activity assessed as inhibition of basal Pgp-ATPase activity at 25 uM incubated for 60 mins in presence of ATP by Glo-luminescence based microplate reader assay relative to DMSO
[18] = Reversal of multidrug resistance in human KBV Cells assessed as increase in PTX-induced cytotoxicity by measuring cell survival rate at 10 uM incubated for 72 hrs in presence of paclitaxel by MTT assay relative to control; format: functional; conditions: read-out: Survival
[19] = Induction of Ptx-mediated cell cycle arrest in human KBV cells assessed as accumulation of cells at G2-M phase at 5 uM incubated for 24 hrs in presence of paclitaxel by flow cytometry analysis (Rvb =25.34 +/- 0.92%); format: functional
[20] = Chemo-sensitizing activity against Ptx-resistance human KBV cells xenografted in BALB/c mouse assessed as inhibition of tumor growth at 20 mg/kg,ip pre-treated with paclitaxel measured after 23 days; format: functional; conditions: 552 h, time 23 day
[21] = Drug accumulation in human KBV cells at 10 uM incubated for 4 hrs by LC-MS/MS analysis; format: ADME, cell-based
[22] = Induction of cell cycle arrest in human KBV cells assessed as accumulation of cells at G2-M phase at 5 uM incubated for 24 hrs by flow cytometry analysis (reference value: 24.94 +/- 0.21%); format: functional
[23] = biological target: T1, ATP-dependent translocase ABCB1; experiment: Negative allosteric modulator activity at human P-gp ATP synthase hydrolytic activity assessed as inhibition of basal Pgp-ATPase activity at 0.5 mM incubated for 60 mins in presence of ATP by Glo-luminescence based microplate reader assay; conditions: 1 h, 500 µM
P-gp (ABCB1) ATPase [24] = biological target: T2, P-gp (ABCB1) ATPase; experiment: Negative allosteric modulator activity at human P-gp ATP synthase hydrolytic activity assessed as inhibition of Vrp-stimulated Pgp-ATPase activity at 25 uM incubated for 60 mins in presence of ATP by Glo-luminescence based microplate reader assay relative to DMSO; conditions: probe Vrp (stimulator of the ATPase activity)
[25] = Induction of Ptx-mediated cell cycle arrest in human KBV cells assessed as accumulation of cells at S phase at 5 uM incubated for 24 hrs in presence of paclitaxel by flow cytometry analysis (Rvb =16.63 +/- 0.4%); format: functional
[26] = biological target: T1, ATP-dependent translocase ABCB1; experiment: Negative allosteric modulator activity at P-glycoprotein in human KBV cells assessed as effect on P-gp protein localization at 10 uM incubated for 48 hrs by immunofluorescence analysis; format: cell-based
[27] = biological target: T1, ATP-dependent translocase ABCB1; experiment: Negative allosteric modulator activity at human P-gp ATP synthase hydrolytic activity assessed as inhibition of basal Pgp-ATPase activity at 1 mM incubated for 60 mins in presence of ATP by Glo-luminescence based microplate reader assay; conditions: 1 h, 1000 µM
[28] = Reversal of multidrug resistance in human KBV Cells assessed as reversal fold of paclitaxel IC50 at 10 uM incubated for 72 hrs in presence of paclitaxel by MTT assay; format: functional
[29] = Induction of Ptx-mediated cell cycle arrest in human KBV cells assessed as accumulation of cells at S phase at 10 uM incubated for 24 hrs in presence of paclitaxel by flow cytometry analysis (Rvb =16.63 +/- 0.4%); format: functional
[30] = Induction of cell cycle arrest in human KBV cells assessed as accumulation of cells at S phase at 10 uM incubated for 24 hrs by flow cytometry analysis (reference value: 12.42 +/- 0.41%); format: functional
[31] = Induction of Ptx-mediated cell cycle arrest in human KBV cells assessed as accumulation of cells at Sub-G1 phase at 10 uM incubated for 24 hrs in presence of paclitaxel by flow cytometry analysis (reference value: 1.21 +/- 0.3%); format: functional

T2 sequence (P08183 whole entry): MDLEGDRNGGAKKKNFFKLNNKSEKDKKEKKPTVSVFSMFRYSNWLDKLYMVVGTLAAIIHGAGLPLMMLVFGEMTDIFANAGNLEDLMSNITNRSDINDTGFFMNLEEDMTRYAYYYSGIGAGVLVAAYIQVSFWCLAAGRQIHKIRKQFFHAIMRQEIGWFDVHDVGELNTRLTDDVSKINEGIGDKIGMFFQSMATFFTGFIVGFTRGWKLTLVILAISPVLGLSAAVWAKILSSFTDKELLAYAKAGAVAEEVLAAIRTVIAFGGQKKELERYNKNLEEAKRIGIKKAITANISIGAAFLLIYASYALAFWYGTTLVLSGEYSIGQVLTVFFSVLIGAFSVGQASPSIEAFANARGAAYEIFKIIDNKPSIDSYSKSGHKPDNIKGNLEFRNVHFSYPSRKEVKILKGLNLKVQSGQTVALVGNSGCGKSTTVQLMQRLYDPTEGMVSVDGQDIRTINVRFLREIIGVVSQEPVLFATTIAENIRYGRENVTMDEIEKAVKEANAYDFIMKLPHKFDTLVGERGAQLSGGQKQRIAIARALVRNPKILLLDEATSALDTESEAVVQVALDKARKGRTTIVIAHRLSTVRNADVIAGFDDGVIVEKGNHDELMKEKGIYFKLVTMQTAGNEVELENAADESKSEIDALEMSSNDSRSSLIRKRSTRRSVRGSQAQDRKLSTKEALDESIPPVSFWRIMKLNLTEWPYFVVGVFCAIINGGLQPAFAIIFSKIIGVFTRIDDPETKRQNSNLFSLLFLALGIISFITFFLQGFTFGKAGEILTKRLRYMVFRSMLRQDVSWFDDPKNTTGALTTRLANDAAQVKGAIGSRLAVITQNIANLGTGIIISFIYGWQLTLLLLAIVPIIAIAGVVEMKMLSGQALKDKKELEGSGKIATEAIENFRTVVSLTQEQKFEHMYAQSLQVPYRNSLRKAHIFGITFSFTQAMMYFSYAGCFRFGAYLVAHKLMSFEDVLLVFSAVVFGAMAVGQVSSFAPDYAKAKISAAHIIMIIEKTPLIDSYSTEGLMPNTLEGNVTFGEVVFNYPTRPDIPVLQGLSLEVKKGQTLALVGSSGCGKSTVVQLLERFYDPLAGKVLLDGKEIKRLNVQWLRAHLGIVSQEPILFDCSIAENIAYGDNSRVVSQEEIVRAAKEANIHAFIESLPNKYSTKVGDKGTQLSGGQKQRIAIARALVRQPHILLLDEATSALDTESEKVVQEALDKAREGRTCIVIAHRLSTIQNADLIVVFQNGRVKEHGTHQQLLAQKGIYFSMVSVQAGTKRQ
T1 sequence (P08183 whole entry): as above

## CC(C)(O)[C@H]1CC[C@@](C)([C@H]2CC[C@]3(C)[C@@H]2[C@H](O)C[C@@H]2[C@@]4(C)CC[C@H](NC(=O)[C@@H]5CCCN5)C(C)(C)[C@@H]4CC[C@]23C)O1
[1]
  Drug uptake: Active
[2]
  Activity: Active
[3]
  viability at 10 µM: 123%
[4]
  Activity: 13.38%
[5]
  fold change (FC): 21
[6]
  Activity: 59.58%
[7]
  Activity: 25.93%
P-gp (ABCB1) ATPase [8]
  inhibition at 1 h: 13%
[9]
  Activity: Not Active
[10]
  Activity: Not Active
[11]
  Activity: Non-Toxic
[12]
  Activity: 0.58%
[13]
  Activity: 1%
[14]
  Activity: 60.47%
[15]
  Activity: 11.4%
[16]
  viability at 5 µM: 34%
P-gp (ABCB1) ATPase [17]
  inhibition at 1 h, 25 µM: 87%
[18]
  viability at 10 µM: 30%
[19]
  Activity: 31.28%
[20]
  inhibition in vivo at 20 mg/kg: 58.1%
[21]
  Drug uptake: Active
[22]
  Activity: 27.12%
[23]
  inhibition (INH): Not Active
P-gp (ABCB1) ATPase [24]
  inhibition at 1 h, 25 µM: 60%
[25]
  Activity: 22%
[26]
  Activity: Not Active
[27]
  inhibition (INH): Not Active
[28]
  fold change (FC): 67
[29]
  Activity: 20.53%
[30]
  Activity: 13.74%
[31]
  Activity: 8.58%
